This note sets out measurements from patent US20060040861A1, “Method of treating, preventing, and diagnosing prostate cancer” (priority 2004, published 2006).

Assay [1] concerns LNCaP-FGC cells. The assay can be described thus: [3H] thymidine incorporation assay. In kind it is cell-based, human. How it is done: (§1) DU145 (1.5×10^5/well), PC-3 (1.0×10^5/well) and LNCaP-FGC (2.0×10^5/well) cells were seeded into 24-well plates 24 hours before serum-starvation. Cells were deprived of serum for 48 hours, followed by incubation with leptin at indicated concentrations or 100 ng/ml IL-6 for 20 hours. In some experiments, cells were pretreated with SP600125 prior to cytokine stimulation as described below. Cells in each well were pulsed with 1 μCi of [^3H] thymidine (Amersham Pharmacia Biotech Inc., Piscataway, N.J., USA) during the final 5 hours, washed once with PBS, fixed with cold 5% trichloroacetic acid, solubilized with 0.25 M NaOH, and counted in scintillant. Each experiment was performed in quadruplicate, and the values are reported as mean±SD.

Another assay relates to DU145 cells. The assay can be described thus: [3H] thymidine incorporation assay. Format: cell-based, human. The procedure:
as §1
(§2) SP600125 was dissolved in DMSO to make a stock solution. Eighty-percent confluent prostate cancer cells were serum-starved for 24 hours and pretreated with SP600125 at indicated concentrations for 30 minutes, followed by leptin treatment (12.5 μg/ml): 15 minutes for Western blot analysis or 20 hours for thymidine incorporation assays. DMSO-treated cells were employed as controls.
A general note: Dividing cells build labelled thymidine or BrdU into new DNA.

Another assay relates to PC-3 cells. The assay can be described thus: [3H] thymidine incorporation assay. Format: cell-based, human. The procedure: as §1, §2
Assay [2] has as its system LNCaP-FGC cells. Put plainly: Cell proliferation with leptin and DHT. Format: cell-based, human. To be noted: only in the presence of DHT.
For the next assay, the system named is JNK. The assay can be described thus: In vitro JNK assay on lysates of treated C2C12 myoblasts. To be noted: 1.0 μg/ml. Format: cell-based, murine. How it is done: (§3) Seventy-percent confluent cells were deprived of serum for 24 hours, followed by treatment with 1 μg/ml f- or g-adiponectin or 10 μg/ml anisomycin for indicated periods. After being rinsed with cold phosphate-buffered saline, cells were harvested using a scraper and collected by centrifugation at 700×g for 10 minutes at 4° C. The cell pellets were then homogenized in cell lysis buffer (20 mM HEPES, pH 7.9, 300 mM NaCl, 1 mM Na3VO4, 1 μg/ml leupeptin, 5 μg/ml aprotinin, 1 μg/ml pepstatin, and 1 mM phenylmethylsulfonyl fluoride) and rocked gently for 30 minutes at 4° C. The homogenates were centrifuged at 15,000×g for 5 minutes at 4° C., and the supernatants were saved as cell lysates and stored at −80° C. until use.
Using the stress-activated protein kinase/JNK assay kit, JNK activity was assessed with a fusion protein of the c-Jun NH2 terminus (amino acids 1 to 89) and glutathione S-transferase as a substrate according to the manufacture's instructions with some modifications as reported before (M. Onuma, et al., supra, 2003). […] The substrate fusion protein was separated by SDS-polyacrylamide gel electrophoresis, and its phosphorylation by JNK was determined by Western blot analysis using anti-phospho-c-Jun (Ser-63) polyclonal antibody. To normalize sample variations, JNK protein levels were also determined by Western blot analysis using anti-JNK antibody.

In a further assay the test system is STAT3. Put plainly: Electromobility shift assay (EMSA) of STAT3 DNA binding. In kind it is cell-based, human. How it is done:
as §3
The EMSA was performed as described previously (Y. Iwamoto, et al., J. Biol. Chem. 273:18198-18204, 1998). Cell lysates containing 10 μg of protein were subjected to the assay with ^32P-end-labeled, double-stranded oligonucleotide M67-SIE (forward: 5′[…]-3′ and reverse: 5′-[…]-3′) as a probe. The supershift assay was carried out to confirm the STAT3-DNA complex using anti-STAT3 antibody.
For orientation: A gel shift assay detects complexes by their altered migration in electrophoresis.

A further assay concerns c-Jun. Put plainly: Western blot analysis of c-Jun phosphorylation in C2C12 myoblasts. Format: cell-based, murine. The note with it: 1.0 μg/ml. How it is done:
as §3
Cell lysates (100 μg of protein) were electrophoresed on 10% SDS-polyacrylamide gels and transferred to polyvinylidene difluoride membranes. After being washed and blocked, the membranes were hybridized with anti-phospho-c-Jun (Ser-63 or Ser-73) polyclonal antibody that specifically detects phosphorylated c-Jun molecules. The membranes were then stripped and re-hybridized with anti-c-Jun antibody that recognizes both phosphorylated and unphosphorylated c-Jun molecules to normalize sample variations.
(A western blot detects proteins with antibodies after separation by electrophoresis.)

For the molecule “leptin: Recombinant human leptin purchased from R&D Systems; major adipose cytokine”, the “cell proliferation on co-treatment with leptin and IGF-I” value with LNCaP-FGC cells [1] (12.5 μg/ml leptin with 100 ng/ml IGF-I, 20 hours) is listed as “did not influence”. Also, the “effect on the IL-6-induced inhibition of cell proliferation” value with LNCaP-FGC cells [1] (12.5 μg/ml leptin with 100 ng/ml IL-6, 20 hours) is recorded as “did not influence”. The “[3H] thymidine incorporation (cell proliferation), cytokine alone” value is given as “did not influence” with LNCaP-FGC cells [1] (serum-deprived, leptin up to 12.5 μg/ml, IL-6 100 ng/ml or IGF-I 100 ng/ml, 20 hours); “stimulated thymidine incorporation remarkably in a dose-dependent fashion” in the assay with DU145 cells (DU145, serum-deprived, leptin up to 12.5 μg/ml, IL-6 100 ng/ml or IGF-I 100 ng/ml, 20 hours); “stimulated thymidine incorporation remarkably in a dose-dependent fashion” in the assay on PC-3 cells (PC-3, serum-deprived, leptin up to 12.5 μg/ml, IL-6 100 ng/ml or IGF-I 100 ng/ml, 20 hours). The “effect on the IGF-I stimulation of cell proliferation” value with DU145 cells (DU145, 12.5 μg/ml leptin with 100 ng/ml IGF-I, 20 hours) was “drastic, synergistic effects”; with PC-3 cells (PC-3, 12.5 μg/ml leptin with 100 ng/ml IGF-I, 20 hours), “drastic, synergistic effects”. Further, the “effect on the IL-6 stimulation of cell proliferation” value with DU145 cells (DU145, 12.5 μg/ml leptin with 100 ng/ml IL-6, 20 hours) was “additive effects”; in the assay on PC-3 cells (PC-3, 12.5 μg/ml leptin with 100 ng/ml IL-6, 20 hours), “additive effects”. In addition, the “cell proliferation, leptin together with androgen (DHT)” value in the assay on LNCaP-FGC cells [2] is listed as “synergistically stimulate cell proliferation”.

B1: f-adiponectin: Recombinant human full-length (non-proteolytic) adiponectin, about 30-kDa polypeptide; lot mainly HMW form (protein, UniProt Q15848 1-244, looked up)
chain: MLLLGAVLLLLALPGHDQETTTQGPGVLLPLPKGACTGWMAGIPGHPGHNGAPGRDGRDGTPGEKGEKGDPGLIGPKGDIGETGVPGAEGPRGFPGIQGRKGEPGEGAYVYRSAFSVGLETYVTIPNMPIRFTKIFYNQQNHYDGSTGKFHCNIPGLYYFAYHITVYMKDVKVSLFKKDKAMLFTYDQYQENNVDQASGSVLLHLEVGDQVWLQVYGEGERNGLYADNDNDSTFTGFLLYHDTN
modifications: full-length
notes: Recombinant human full-length (non-proteolytic) adiponectin, about 30-kDa polypeptide; lot mainly HMW form
On to B1, for which the “time of peak JNK activation after addition” value in the assay with JNK is 10 min. Moreover, the JNK activation entry in the assay with JNK (up to 60 minutes) is “further stimulated JNK activation”. In addition, in the assay with STAT3 (DU145 and HepG2 cells, 1.0 μg/ml, up to 60 minutes), the “constitutive STAT3 activation (STAT3 DNA binding activity)” value is reported as “inhibited constitutive STAT3 activation drastically”. The STAT3 activation entry in the assay with STAT3 (the other cell lines (PC-3, LNCaP-FGC, C2C12), data not shown) was “Neither f- nor g-adiponectin influenced STAT3 activation”. Besides, in the assay with c-Jun, the “c-Jun phosphorylation at Ser-63” value is “augmented c-Jun phosphorylation at Ser-63” and the “c-Jun phosphorylation at Ser-73” value is “stimulated Ser-73 phosphorylation”.
